Experimental findings from EP4227307A1 (Genzyme Corporation, priority 2022, dated 2023) are described below.

Counter-ions that a name gives are not always drawn.

The target of this experiment is T1, human recombinant 6His-Nterm SHP2 full-length (Thr2-Arg593) (Homo sapiens, UniProt Q06124).
T1 construct: 6His-Nterm SHP2 full-length (Thr2-Arg593, R&D system); 6His (N); purchased R&D system
T1 sequence (Q06124 2-593): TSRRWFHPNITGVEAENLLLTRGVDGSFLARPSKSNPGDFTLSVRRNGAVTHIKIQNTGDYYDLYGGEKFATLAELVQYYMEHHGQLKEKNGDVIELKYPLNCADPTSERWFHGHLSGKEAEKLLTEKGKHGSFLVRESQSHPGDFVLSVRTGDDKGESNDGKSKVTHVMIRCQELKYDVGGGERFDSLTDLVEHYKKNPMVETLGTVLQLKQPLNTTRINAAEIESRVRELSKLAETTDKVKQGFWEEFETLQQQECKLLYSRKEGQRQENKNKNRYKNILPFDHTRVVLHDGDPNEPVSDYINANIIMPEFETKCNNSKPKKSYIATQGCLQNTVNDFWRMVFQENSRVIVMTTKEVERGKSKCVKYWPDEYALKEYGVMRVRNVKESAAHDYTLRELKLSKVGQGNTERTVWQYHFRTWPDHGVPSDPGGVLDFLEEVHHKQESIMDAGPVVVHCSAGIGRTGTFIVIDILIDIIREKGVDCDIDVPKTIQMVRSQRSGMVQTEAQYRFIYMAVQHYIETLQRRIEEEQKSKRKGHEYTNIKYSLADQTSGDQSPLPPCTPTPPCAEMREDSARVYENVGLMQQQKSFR
In words: SHP2 Phosphatase Assay (DiFMUP fluorescence). It is filed as biochemical. The note with it: SHP2 0.2 nM pre-incubated with 100 nM bi-phosphorylated activating peptide; compound 1000-0.05 nM, 30 min pre-incubation; DiFMUP 20 µM, 45 min, room temperature; 10-concentration dose-response. The method, boiled down:
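SHP2 (0.2 nM) preactivated ≥10 min with 100 nM bis-phosphorylated peptide, then 30 min with compound (10 concentrations, 1000–0.05 nM) at room temperature, pH 7.2 HEPES buffer with DTT. DiFMUP (20 µM, added solution) reacted 45 min, pervanadate-stopped; fluorescence 350/450 nm. IC50 by 4-parameter logistic fit.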
As usually defined, the IC50 is the concentration needed to halve the response being measured. `Cc1nc(N2CCC3(CC2)Oc2ccccc2[C@H]3N)c2ccnn2c1-c1cccc(Cl)c1Cl` [Compound 19, (3R)-1'-[7-(2,3-dichlorophenyl)-6-methyl-pyrazolo [1 ,5-a]pyrazin-4-yl]spiro[3H-benzofuran-2,4'-piperidine]-3-amine]: the IC50 turned out to be 102 nM.

For the molecule `Cc1nc(N2CCC3(CC2)Cc2ncccc2[C@H]3N)c2ccnn2c1-c1cccc2c1ccn2C` [Compound 182, (5S)-1'-[6-methyl-7-(1-methylindol-4-yl)pyrazolo[1,5-a]pyrazin-4-yl]spiro[5,7-dihydrocyclopenta[b]pyridine-6,4'-piperidine]-5-amine], the half-maximal inhibitory concentration (IC50) stood at 23 nM.

Turning to `Cc1nc2c(s1)CC1(CCN(c3nc(C)c(-c4ccnc(C)c4Cl)n4nccc34)CC1)[C@@H]2N` [Compound 105, (4S)-1'-[7-(3-chloro-2-methyl-4-pyridyl)-6-methyl-pyrazolo[1,5-a]pyrazin-4-yl]-2-methyl-spiro[4,6-dihydrocyclopenta[d]thiazole-5,4'-piperidine]-4-amine hydrochloride], the IC50 worked out at 6 nM.

In the case of `Cc1nc(N2CCC3(CC2)Cc2ncccc2[C@H]3N)c2ccnn2c1-c1ccc2nccnc2c1Cl` [Compound 77, (5S)-1'-[7-(5-chloroquinoxalin-6-yl)-6-methyl-pyrazolo[1,5-a]pyrazin-4-yl]spiro[5,7-dihydrocyclopenta[b]pyridine-6,4'-piperidine]-5-amine], the IC50 stood at 4 nM.

As for `COc1ccc2c(c1)[C@@H](N)C1(CCN(c3nc(C)c(-c4ccnc(C)c4Cl)n4nccc34)CC1)C2` [Compound 10, (1S)-1'-[7-(3-chloro-2-methyl-4-pyridyl)-6-methyl-pyrazolo [1,5-a]pyrazin-4-yl]-6-methoxy-spiro[indane-2,4'-piperidine]-1-amine hydrochloride], the IC50 stood at 11 nM.

In the case of `Cc1nc(N2CCC3(CC2)Cc2ncccc2[C@H]3N)c2ccnn2c1-c1cncc(F)c1` [Compound 179, (5S)-1'-[7-(5-fluoro-3-pyridyl)-6-methyl-pyrazolo[1,5-a]pyrazin-4-yl]spiro[5,7-dihydrocyclopenta[b]pyridine-6,4'-piperidine]-5-amine], the IC50 is 18 nM.

Consider `COc1cc2c(cn1)[C@@H](N)C1(CCN(c3nc(C)c(-c4ccnc(C)c4Cl)n4nccc34)CC1)C2` [Compound 121, (7S)-1'-[7-(3-chloro-2-methyl-4-pyridyl)-6-methyl-pyrazolo[1,5-a]pyrazin-4-yl]-3-methoxy-spiro [5,7-dihydrocyclopenta[c]pyridine-6,4'-piperidine]-7-amine], for which the 50% inhibitory concentration (IC50) amounted to 8 nM.

On to `Cc1nc(N2CCC3(CC2)Cc2ncccc2[C@H]3N)c2ccnn2c1-c1ccncc1F` [Compound 71, (5S)-1'-[7-(3-fluoro-4-pyridyl)-6-methyl-pyrazolo[1,5-a]pyrazin-4-yl]spiro[5,7-dihydrocyclopenta[b]pyridine-6,4'-piperidine]-5-amine hydrochloride], for which the IC50 was 30 nM.

As for `Cc1nc(N2CCC3(CC2)Cc2ncccc2[C@H]3N)c2ccnn2c1-c1cc2ccccc2n1C` [Compound 50, (5S)-1'-[6-methyl-7-(1-methylindol-2-yl)pyrazolo[1,5-a]pyrazin-4-yl]spiro[5,7-dihydrocyclopenta[b]pyridine-6,4'-piperidine]-5-amine], the IC50 stood at 10 nM.

In the case of `Cc1nc(N2CCC3(CC2)Cc2nc(CO)ccc2[C@H]3N)c2ccnn2c1-c1ccccc1` [Compound 223, [(5S)-5-amino-1'-(6-methyl-7-phenyl-pyrazolo[1,5-a]pyrazin-4-yl)spiro[5,7-dihydrocyclopenta[b]pyridine-6,4'-piperidine]-2-yl]methanol], the IC50 turned out to be 13 nM.

With `Cc1c(-c2cnc(N3CCC4(CC3)Cc3ncccc3[C@H]4N)c3ccnn23)cnn1C` [Compound 88, (5S)-1'-[7-(1,5-dimethylpyrazol-4-yl)pyrazolo [1,5-a]pyrazin-4-yl]spiro[5,7-dihydrocyclopenta[b]pyridine-6,4'-piperidine] -5-amine hydrochloride], the IC50 came to 346 nM.

Take `Cc1nc(N2CCC3(CC2)Cc2ncccc2[C@H]3N)c2ccnn2c1-c1ccnc(C(F)(F)F)c1` [Compound 49, (5S)-1'-[6-methyl-7-[2-(trifluoromethyl)-4-pyridyl]pyrazolo[1,5-a]pyrazin-4-yl]spiro[5,7-dihydrocyclopenta[b]pyridine-6,4'-piperidine]-5-amine]: the IC50 stood at 130 nM.

As to `Cc1nc(N2CCC3(CC2)Cc2ncccc2[C@H]3N)c2ccnn2c1-c1ccc2c(c1)OCC2` [Compound 162, (5S)-1'-[7-(2,3-dihydrobenzofuran-6-yl)-6-methyl-pyrazolo[1,5-a]pyrazin-4-yl]spiro[5,7-dihydrocyclopenta[b]pyridine-6,4'-piperidine]-5-amine], the IC50 was found to be 4 nM.

Take `COc1cc2c(cn1)CC1(CCN(c3nc(C)c(-c4ccccc4F)n4nccc34)CC1)[C@@H]2N` [Compound 131, (5S)-1'-[7-(2-fluorophenyl)-6-methyl-pyrazolo[1,5-a]pyrazin-4-yl] -3-methoxy-spiro [5,7-dihydrocyclopenta[c]pyridine-6,4'-piperidine]-5-amine]: the concentration for half-maximal inhibition (IC50) was determined as 13 nM.

Turning to `Cc1nc(N2CCC3(CC2)Cc2nc(C(F)F)ccc2[C@H]3N)c2ccnn2c1-c1cnn(C)c1C` [Compound 61, (5S)-2-(difluoromethyl)-1'-[7-(1,5-dimethylpyrazol-4-yl)-6-methyl-pyrazolo[1,5-a]pyrazin-4-yl]spiro [5,7-dihydrocyclopenta[b]pyridine-6,4'-piperidine]-5-amine], the 50% inhibitory concentration (IC50) was determined as 211 nM.

In the case of `CCc1nccc(-c2c(C)nc(N3CCC4(CC3)Cc3ncccc3[C@H]4N)c3ccnn23)c1Cl` [Compound 42, (5S)-1'-[7-(3chloro-2-ethyl-4-pyridyl)-6-methyl-pyrazolo[1,5-a]pyrazin-4-yl]spiro[5,7-dihydrocyclopenta[b]pyridine-6,4'-piperidine]-5-amine], the half-maximal inhibitory concentration (IC50) amounted to 3 nM.

Consider `Cc1nc(N2CCC3(CC2)Cc2cccnc2[C@H]3N)c2ccnn2c1-c1cnn(C)c1C` [Compound 130, (7S)-1'-[7-(1,5-dimethylpyrazol-4-yl)-6-methyl-pyrazolo[1,5-a]pyrazin-4-yl]spiro[5,7-dihydrocyclopenta[b]pyridine-6,4'-piperidine]-7-amine], for which the half-maximal inhibitory concentration (IC50) was 60 nM.

In the case of `COCc1cnn2c(-c3ccccc3F)c(C)nc(N3CCC4(CC3)Cc3ncccc3[C@H]4N)c12` [Compound 225, (5S)-1'-[7-(2-fluorophenyl)-3-(methoxymethyl)-6-methyl-pyrazolo[1,5-a]pyrazin-4-yl]spiro[5,7-dihydrocyclopenta[b]pyridine-6,4'-piperidine]-5-amine], the IC50 was over 1000 nM.

For `Cc1nc2c(s1)[C@@H](N)C1(CCN(c3nc(C)c(-c4cnn(C)c4C)n4nccc34)CC1)C2` [Compound 82, (6S)-1'-[7-(1,5-dimethylpyrazol-4-yl)-6-methyl-pyrazolo[1,5-a]pyrazin-4-yl]-2-methyl-spiro[4,6-dihydrocyclopenta[d]thiazole-5,4'-piperidine] -6-amine hydrochloride], the half-inhibitory concentration (IC50) was 27 nM.

For `Cc1nc(N2CCC3(CC2)Cc2scnc2[C@H]3N)c2ccnn2c1-c1cccc(F)c1F` [Compound 65, (4S)-1'-[7-(2,3-difluorophenyl)-6-methyl-pyrazolo[1,5-a]pyrazin-4-yl]spiro[4,6-dihydrocyclopenta[d]thiazole-5,4'-piperidine]-4-amine hydrochloride], the IC50 turned out to be 22 nM.

Regarding `Cc1nccc(-c2c(C)nc(N3CCC4(CC3)Oc3ncccc3[C@H]4N)c3ccnn23)c1Cl` [Compound 15, (3R)-1'-[7-(3-chloro-2-methyl-4-pyridyl)-6-methyl-pyrazolo[1,5-a]pyrazin-4-yl]spiro[3H-furo[2,3-b]pyridine-2,4'-piperidine]-3-amine], the IC50 is 20 nM.

`Cc1nc(N2CCC3(CC2)Cc2ncsc2[C@H]3N)c2ccnn2c1-c1ccccc1F` [Compound 75, (6S)-1'-[7-(2-fluorophenyl)-6-methyl-pyrazolo[1,5-a]pyrazin-4-yl]spiro[4,6-dihydrocyclopenta[d]thiazole-5,4'-piperidine]-6-amine hydrochloride]: the IC50 was 7 nM.

On to `Cc1nc(N2CCC3(CC2)Cc2ncccc2[C@H]3N)c2ccnn2c1-c1cccc(F)c1C` [Compound 197, (5S)-1'-[7-(3-fluoro-2-methyl-phenyl)-6-methyl-pyrazolo[1,5-a]pyrazin-4-yl]spiro[5,7-dihydrocyclopenta[b]pyridine-6,4'-piperidine]-5-amine], for which the IC50 amounted to 7 nM.

As for `Cc1nc(N2CCC3(CC2)Cc2c(F)cccc2[C@H]3N)c2ccnn2c1-c1ccccc1F` [Compound 93, (1S)-4-fluoro-1'-[7-(2-fluorophenyl)-6-methyl-pyrazolo[1,5-a]pyrazin-4-yl]spiro[indane-2,4'-piperidine]-1-amine hydrochloride], the concentration for half-maximal inhibition (IC50) came out at 46 nM.
